# Results as given in patent US12527785B2, “Renin-angiotensin-aldosterone system (RAAS) inhibitors in the treatment of pancreatic ductal carcinoma” (OCHSNER CLINIC FOUNDATION, priority 2023, dated 2026).
# Columns and labels:
# PANC-1 cells = test: WST1 cell proliferation assay, PANC-1 cells; format: cell-based, human
# Description: (§1) PDA cell line (PANC-1 or HS766T) or patient cancer cells (PaCa9) were trypsinized with 1% trypsin in Hank's Balanced Salt Solution (HBSS), counted, washed, and resuspended in serum free AIM media (ThermoFisher Scientific, Waltham, MA) or complete Dulbecco's Modified Eagle Medium (DMEM) supplemented with 10% fetal bovine serum, […], 100 U/ml of penicillin G, and […] of streptomycin. Cells at a concentration of 2-4×10^4 cells/well in 100 μl culture medium were seeded in triplicate in 96 well plates, then cultured in a humidified incubator at 37° C. and 5% CO2. On the next day, cell supernatant was discarded and compounds (e.g., drugs) of the present disclosure in 200 μl medium were added with the concentrations indicated in the following Examples. After 72 hours of culture, cell proliferation reagent WST1 (20 μl/well, Sigma Aldrich Inc, St. Louis, MO) were added and plates were read using an ELISA reader at 2 hours and 4 hours under the wavelength of 450 nm. The measured absorbance (OD value) was recorded and graphed and statistically analyzed using GraphPad Prism 8, t-test, or t-test with Bonferroni correction.
# [1] = tested on: PDCA cells (PANC-1, HS766T, PaCa9); test: In vitro PDCA cell proliferation (WST1), summary statements over the cell lines tested; format: cell-based
# Description: as §1
# [2] = tested on: PaCa-9 PDAC patient tumor cells; test: WST1 cell proliferation assay, PaCa-9 PDAC patient tumor cells; format: cell-based, human; details: for cell proliferation, WST1 absorbance (OD value, 450 nm), mean: 10% FCS-DMEM
# Description: as §1, with “Louis, MO) were added and plates were read using an ELISA reader at 2 hours and 4 hours under the wavelength of 450 nm.” left out
# [3] = tested on: PANC-1 tumor orthotopic xenograft; test: PANC-1 tumor orthotopic xenograft mouse model (BLI tumor burden, tumor weight); format: in vivo; details: four weeks; for Tumor weight, % of control / Tumor weight, mean: Table 19; for Tumor weight, mean: control 0.425; for BLI data, mean: control 3.003
# From the text: Human PDCA cell line PANC-1 was transduced with pre-made lentiviral vectors encoding luciferase (firefly)/red fluorescent protein (RFP) to enable monitoring of the growth of primary tumor and metastasis. […] For in vivo experiments, Nonobese diabetic/severe combined immunodeficiencyNOD-SCID mice (Jackson Labs, Bar Harbor, ME, or inhouse breeding) were first brought under anesthesia with isoflurane (2.5% in 100% oxygen, 1 L/min) in an induction chamber and maintained under adequate anesthesia (isoflurane inhalation) while being laid on a warming pad throughout the surgical procedure. For tumor generation, 5×10^4 luciferase-tagged PANC-1 cells were co-inoculated with 3×10^5 lymph node stromal cell (LNSC) analog HK cells. The mice received a 0.75-1.2 cm long incision (on the left side of the body slightly medial to the splenic silhouette) to exteriorize the spleen and pancreas. While gently retracting the pancreas laterally, a 30 G needle was inserted along the length of the pancreas from the tail to the pancreatic head region. Then, 10 μl of cell suspension was injected as the needle was withdrawn to the mid-body of the pancreas. The needle was removed, and the area was inspected for leakage and bleeding. The pancreas and spleen were internalized with forceps and the abdominal muscle layer was closed with interrupted stitches (3-0 silk suture). The overlying skin was closed with a second set of interrupted stitches. Buprenorphine SR-LAB was injected subcutaneously immediately after the surgery for pain relief.
# After the surgery, tumor growth and metastatic tumor burden were monitored and assessed weekly for luciferase activity by bioluminescence imaging (BLI) using Lago Imaging System (Spectral Instruments Imaging, Tucson, AZ). Mice were anesthetized using isoflurane for all imaging procedures. Mice were administered intraperitoneally with luciferin (10 mg/kg) and imaged in 10-20 minutes for maximum luciferase signal plateau. Images were analyzed using Aura Imaging software. Once the BLI levels of xenografted tumor reached 5×10^8 photons (around 7-9 weeks post PANC-1 cell injection), the mice were grouped based on their BLI level and compounds (e.g., drugs) of the present disclosure were given by gavage daily to each group for 4 weeks. […] Upon sacrifice after 4 weeks of treatment, primary tumors and mouse organs were harvested, weighed, imaged, and formalin-fixed for (hematoxylin and eosin) H&E and immunohistochemistry staining. Data was statistically analyzed using t-test, or t-test with Bonferroni correction.
# HS766T cells = test: WST1 cell proliferation assay, HS766T cells; format: cell-based
# Description: as §1
# [4] = 0.1 mg/kg by subcutaneous injection; cited from earlier work
# [5] = mouse, in vivo; cited from earlier work
# [6] = Candesartan Cilexitil (60 mg/kg)
smiles,measurement,setting,value
CCCCc1nc(Cl)c(CO)n1Cc1ccc(-c2ccccc2-c2nn[nH]n2)cc1 [Losartan],"cell proliferation, WST1 absorbance (OD value, 450 nm), mean","PANC-1 cells; Losartan 100 μM, Table 1, 2 h, 10% FCS-DMEM, control 3.618",2.507
same,"cell proliferation, WST1 absorbance (OD value, 450 nm), mean","PANC-1 cells; Losartan 100 μM, Table 5A, 10% FCS-DMEM, 2×10^4 cells per well, Medium/DMSO 3.348",3.699
same,Change in cellular proliferation,[1]; losartan 100 μM,no statistical change in cellular proliferation
same,"cell proliferation, WST1 absorbance (OD value, 450 nm), mean","[2]; Losartan 100 μM, Table 3, 1 h, Medium/DMSO 3.571",3.392
same,"cell proliferation, WST1 absorbance (OD value, 450 nm), mean","[2]; Losartan 100 μM, Table 7A, 2×10^4 cells per well, control 3.535",3.161
same,"BLI data, % of control",[3]; Losartan (60 mg/kg),73%
same,"Tumor weight, % of control",[3]; Losartan (60 mg/kg),87%
same,"Tumor weight, mean",[3]; Losartan (60 mg/kg),0.3691 g
same,"BLI data, mean",[3]; Losartan (60 mg/kg),2.199
same,"cell proliferation, WST1 absorbance (OD value, 450 nm), mean","HS766T cells; Losartan 100 μM, Table 2, 2 h, 10% FCS-DMEM, control 3.214",2.992
same,"cell proliferation, WST1 absorbance (OD value, 450 nm), mean","HS766T cells; Losartan 100 μM, Table 6A, 10% FCS-DMEM, 2×10^4 cells per well, control 3.339",3.182
CC(=O)S[C@@H]1CC2=CC(=O)CC[C@]2(C)[C@H]2CC[C@@]3(C)[C@@H](CC[C@@]34CCC(=O)O4)[C@H]12 [Spironolactone],"Tumor weight, % of control",[3]; Spironolactone (100 mg/kg),69%
same,"Tumor weight, mean",[3]; Spironolactone (100 mg/kg),0.292 g
CCOc1nc2cccc(C(=O)O)c2n1Cc1ccc(-c2ccccc2-c2nnn[nH]2)cc1 [Candesartan],"Effective (statistically significant, p<0.05, decrease in cell proliferation by WST1 assay)",PANC-1 cells; 20 μM,effective
same,"cell proliferation, WST1 absorbance (OD value, 450 nm), mean","PANC-1 cells; Candesartan 20 μM, Table 5A, 10% FCS-DMEM, 2×10^4 cells per well, Medium/DMSO 3.348",0.612
same,Minimum effective dose (concentration) in vitro,"[1]; PANC-1, Hs766T and PaCa9 cells",~20 µM
same,Change in cellular proliferation,[1]; candesartan 10 μM,no statistical change in cellular proliferation
same,"Effective (statistically significant, p<0.05, decrease in cell proliferation by WST1 assay)",[2]; 20 μM,effective
same,"cell proliferation, WST1 absorbance (OD value, 450 nm), mean","[2]; Candesartan 10 μM, Table 3, 1 h, Medium/DMSO 3.571",3.694
same,"cell proliferation, WST1 absorbance (OD value, 450 nm), mean","[2]; Candesartan 20 μM, Table 7A, 2×10^4 cells per well, control 3.535",0.464
same,"BLI data, % of control",[3]; Candesartan (30 mg/kg),67%
same,"BLI data, mean",[3]; Candesartan (30 mg/kg),2.016
same,"Effective (statistically significant, p<0.05, decrease in cell proliferation by WST1 assay)",HS766T cells; 20 μM,effective
same,"cell proliferation, WST1 absorbance (OD value, 450 nm), mean","HS766T cells; Candesartan 10 μM, Table 2, 2 h, 10% FCS-DMEM, control 3.214",2.856
same,"cell proliferation, WST1 absorbance (OD value, 450 nm), mean","HS766T cells; Candesartan 20 μM, Table 6A, 10% FCS-DMEM, 2×10^4 cells per well, control 3.339",0.620
Cc1cc(Cn2cnc3c2C[C@@H](C(=O)O)N(C(=O)C(c2ccccc2)c2ccccc2)C3)ccc1N(C)C [PD123319],"cell proliferation, WST1 absorbance (OD value, 450 nm), mean","PANC-1 cells; 10 μM, Table 8, 2 h, DMEM-10% FCS, control 3.922",2.724
same,"cell proliferation, WST1 absorbance (OD value, 450 nm), mean","PANC-1 cells; 10 μM, Table 10, 2 h, serum free media, control 3.443",2.120
same,"cell proliferation, WST1 absorbance (OD value, 450 nm), mean","PANC-1 cells; 10 μM, Table 12, 2 h, 10% FCS DMEM, N = 6, control 3.37",2.823
same,"cell proliferation, WST1 absorbance (OD value, 450 nm), mean","PANC-1 cells; 10 μM, Table 14, 2 h, serum free media, N = 6, control 1.208",1.048
same,"cell proliferation, WST1 absorbance (OD value, 450 nm), mean","PANC-1 cells; 30 μM, Table 8, 2 h, DMEM-10% FCS, control 3.922",2.60
same,"cell proliferation, WST1 absorbance (OD value, 450 nm), mean","PANC-1 cells; 30 μM, Table 10, 2 h, serum free media, control 3.443",1.970
same,"cell proliferation, WST1 absorbance (OD value, 450 nm), mean","PANC-1 cells; 30 μM, Table 12, 2 h, 10% FCS DMEM, N = 6, control 3.37",2.854
same,"cell proliferation, WST1 absorbance (OD value, 450 nm), mean","PANC-1 cells; 30 μM, Table 14, 2 h, serum free media, N = 6, control 1.208",0.7668
same,"cell proliferation, WST1 absorbance (OD value, 450 nm), mean","PANC-1 cells; 50 μM, Table 8, 2 h, DMEM-10% FCS, N = 1, control 3.922",1.951
same,"cell proliferation, WST1 absorbance (OD value, 450 nm), mean","PANC-1 cells; 50 μM, Table 10, 2 h, serum free media, control 3.443",2.146
same,"cell proliferation, WST1 absorbance (OD value, 450 nm), mean","PANC-1 cells; 50 μM, Table 12, 2 h, 10% FCS DMEM, N = 6, control 3.37",2.873
same,"cell proliferation, WST1 absorbance (OD value, 450 nm), mean","PANC-1 cells; 50 μM, Table 14, 2 h, serum free media, N = 6, control 1.208",0.728
same,Effective in inhibiting PDCA cell proliferation in vitro,"[1]; 10 μM, 30 μM, and 50 μM, presence or absence of serum",effective
same,"cell proliferation, WST1 absorbance (OD value, 450 nm), mean","HS766T cells; 10 μM, Table 9, 2 h, DMEM-10% FCS, control 2.025",1.336
same,"cell proliferation, WST1 absorbance (OD value, 450 nm), mean","HS766T cells; 10 μM, Table 11, 2 h, serum free media, control 2.0695",1.24
same,"cell proliferation, WST1 absorbance (OD value, 450 nm), mean","HS766T cells; 10 μM, Table 13, 2 h, 10% FCS DMEM, control 2.913",2.895
same,"cell proliferation, WST1 absorbance (OD value, 450 nm), mean","HS766T cells; 10 μM, Table 15, 2 h, serum free media, N = 6, control 1.906",1.708
same,"cell proliferation, WST1 absorbance (OD value, 450 nm), mean","HS766T cells; 30 μM, Table 11, 2 h, serum free media, control 2.0695",1.397
same,"cell proliferation, WST1 absorbance (OD value, 450 nm), mean","HS766T cells; 30 μM, Table 13, 2 h, 10% FCS DMEM, control 2.913",2.555
same,"cell proliferation, WST1 absorbance (OD value, 450 nm), mean","HS766T cells; 30 μM, Table 15, 2 h, serum free media, N = 6, control 1.906",1.56
same,"cell proliferation, WST1 absorbance (OD value, 450 nm), mean","HS766T cells; 50 μM, Table 11, 2 h, serum free media, control 2.0695",1.235
same,"cell proliferation, WST1 absorbance (OD value, 450 nm), mean","HS766T cells; 50 μM, Table 13, 2 h, 10% FCS DMEM, control 2.913",1.886
same,"cell proliferation, WST1 absorbance (OD value, 450 nm), mean","HS766T cells; 50 μM, Table 15, 2 h, serum free media, N = 6, control 1.906",1.154
same,Activity in rats,[4],active
CCOc1nc2cccc(C(=O)OC(C)OC(=O)OC3CCCCC3)c2n1Cc1ccc(-c2ccccc2-c2nnn[nH]2)cc1 (stereo not shown) [Candesartan Cilexitil],Safety of oral administration to mice,[5],safely
same,"Tumor weight, % of control",[3]; [6],38%
same,"Tumor weight, mean",[3]; [6],0.163 g
